One data set concerns the target recombinant human GALK1 (Homo sapiens, UniProt P51570). The data set can be described thus: hGALK1 biochemical activity assay (Kinase-Glo Plus, ATP depletion). In outline: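 Turnover is measured as ATP depletion by Kinase-Glo Plus luminescence after a 1 h room-temperature reaction. Compounds span 11 concentrations, 57.4 μM–0.97 nM, in final 20 mM HEPES pH 8.0 with 5 mM MgCl2. The substrate solution held 35 μM ATP; the added solution held 5 nM human or mouse GALK1 and 100 μM galactose.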

A further data set concerns the target recombinant mouse GALK1 (Mus musculus, UniProt Q9R0N0). Nature of the data set: mGALK1 biochemical activity assay (Kinase-Glo Plus, ATP depletion). In outline: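 Recombinant GALK1 (5 nM) with 100 μM galactose; GALK1 turnover read as ATP depletion by Kinase-Glo Plus luminescence. Reaction ran 1 h at room temperature before detection reagent was added.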
For orientation: Kinase-Glo reads ATP consumption through a luciferase reaction.

The nature of data set [1]: aqueous kinetic solubility.
Data set [2] in a line: rat microsomal stability (RLM). To be noted: microsomal half-life.
Setting [3] is: recombinant human GALK1, Kinase-Glo Plus ATP depletion, read-out: hGALK.
Where [4] appears, read: recombinant mouse GALK1, Kinase-Glo Plus ATP depletion, read-out: mGALK.
[5] abbreviates: Tables 2-15, 35 μM ATP, 100 μM galactose, 1 h, bracketed figure after some values (e.g. −1.2) is undefined and not reported, read-out: hGALK IC50.
The mark [6] stands for this setting: Tables 2-15, 35 μM ATP, 100 μM galactose, 1 h, bracketed figure after some values is undefined and not reported, read-out: mGALK IC50.
[7] abbreviates: recombinant mouse GALK1, Kinase-Glo Plus ATP depletion.

pIC50: −log10 of the molar value. Read-outs that look alike come from different tables or passages of the source. Where only a bound is given, the exact number is not on record here.

recombinant mouse GALK1, sequence (Q9R0N0 whole entry): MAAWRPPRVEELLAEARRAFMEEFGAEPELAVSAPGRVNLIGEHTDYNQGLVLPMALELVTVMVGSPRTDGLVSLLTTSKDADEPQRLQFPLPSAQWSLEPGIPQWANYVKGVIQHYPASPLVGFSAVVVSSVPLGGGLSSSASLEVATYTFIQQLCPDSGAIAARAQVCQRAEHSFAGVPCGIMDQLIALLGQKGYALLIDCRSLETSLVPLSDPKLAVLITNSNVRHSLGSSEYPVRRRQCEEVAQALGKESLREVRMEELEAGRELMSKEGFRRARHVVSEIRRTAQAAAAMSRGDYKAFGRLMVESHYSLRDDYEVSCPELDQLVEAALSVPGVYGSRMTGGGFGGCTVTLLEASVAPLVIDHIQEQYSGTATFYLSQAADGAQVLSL
recombinant human GALK1, sequence (P51570 whole entry): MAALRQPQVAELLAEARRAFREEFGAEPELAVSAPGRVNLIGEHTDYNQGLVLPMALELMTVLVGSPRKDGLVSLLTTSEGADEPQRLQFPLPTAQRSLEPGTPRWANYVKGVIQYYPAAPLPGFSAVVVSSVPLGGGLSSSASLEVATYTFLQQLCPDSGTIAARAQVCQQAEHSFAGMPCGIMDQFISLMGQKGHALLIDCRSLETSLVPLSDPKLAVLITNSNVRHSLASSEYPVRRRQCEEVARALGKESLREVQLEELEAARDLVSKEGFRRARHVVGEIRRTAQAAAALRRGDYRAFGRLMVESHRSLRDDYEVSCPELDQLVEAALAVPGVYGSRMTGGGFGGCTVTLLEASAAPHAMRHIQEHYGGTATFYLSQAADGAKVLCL

Turning to `CC1=C(C(=O)Nc2cc(C(=O)O)ccn2)C(c2ccc(-n3ccnc3)cc2Cl)N=C(Nc2nc3ccc(F)cc3o2)N1` (centres unmarked) [Compound 74, 2-(4-(2-chloro-4-(1H-imidazol-1-yl)phenyl)-2-((6-fluorobenzo[d]oxazol-2-yl)amino)-6-methyl-1,4-dihydropyrimidine-5-carboxaido)isonicotinic acid], the pIC50 on recombinant human GALK1 (setting [3]) was 6.92; on recombinant mouse GALK1 (setting [4]) it was 6.01. For the same compound, the “Sol.” value in data set [1] was greater than 87 µg/mL. Besides, the “Perm. (1 × 10^−6 cm/sec)” value in the data set “PAMPA permeability” is <1 1 × 10^−6 cm/sec. Also, the “Metab. Stabil. (m)” value in data set [2] is greater than 30 m.
The matching figures for `CC1=C(C(=O)Nc2ccccn2)C(c2ccccc2Cl)N=C(Nc2nc3cccc(N)c3o2)N1` (centres unmarked) [Compound 81, 2-((7-aminobenzo[d]oxazol-2-yl)amino)-4-(2-chlorophenyl)-6-methyl-N-(pyridin-2-yl)-1,4-dihydropyrimidine-5-carboxamide]: 5.46, 4.71, less than 1 µg/mL, 271.13 1 × 10^−6 cm/sec and greater than 30 m.
As for `CC1=C(C(=O)NCc2cnn(C)c2)C(c2ccccc2Cl)N=C(Nc2nc3cccc(N)c3o2)N1` (centres unmarked) [Compound 82, 2-((7-aminobenzo[d]oxazol-2-yl)amino)-4-(2-chlorophenyl)-6-methyl-N-((1-methyl-1H-pyrazol-4-yl)methyl)-1,4-dihydropyrimidine-5-carboxamide], the pIC50 at recombinant human GALK1 (setting [3]) is 6.41; on recombinant mouse GALK1 (setting [4]), 5.46. Moreover, the “Sol.” value in data set [1] is greater than 72 µg/mL. For the same compound, the “Perm. (1 × 10^−6 cm/sec)” value in “PAMPA permeability” is 101.9 1 × 10^−6 cm/sec. In addition, the “Metab. Stabil. (m)” value in data set [2] was greater than 30 m.
For the compound `CC1=C(C(=O)Nc2cc(C(=O)O)ccn2)[C@@H](c2ccc(C)cc2Cl)N=C(Nc2nc3cccc(N)c3o2)N1` [Compound 84, (S)-2-(2-((7-aminobenzo[d]oxazol-2-yl)amino)-4-(2-chloro-4-methylphenyl)-6-methyl-1,4-dihydropyrimidine-5-carboxamido)isonicotinic acid], the pIC50 on recombinant human GALK1 (setting [5]) was 5.46; on recombinant human GALK1 (setting [3]), 5.46; at recombinant mouse GALK1 (setting [6]), 4.66; on recombinant mouse GALK1 (setting [4]) it was 4.66. The “Sol.” value in data set [1] is greater than 78 µg/mL. The “Perm. (1 × 10^−6 cm/sec)” value in “PAMPA permeability” was <1 1 × 10^−6 cm/sec. In addition, the “Metab. Stabil. (m)” value in data set [2] is on record as greater than 30 m.
Turning to `CC1=C(C(=O)Nc2cc(C(=O)O)ccn2)[C@H](c2ccc(C)cc2Cl)N=C(Nc2nc3cccc(N)c3o2)N1` [Compound 85, (R)-2-(2-((7-aminobenzo[d]oxazol-2-yl)amino)-4-(2-chloro-4-methylphenyl)-6-methyl-1,4-dihydropyrimidine-5-carboxamido)isonicotinic acid], the pIC50 at recombinant human GALK1 (setting [5]) is 7.05; at recombinant human GALK1 (setting [3]), 7.05; on recombinant mouse GALK1 (setting [6]) it was 5.85; at recombinant mouse GALK1 (setting [4]), 5.85. Besides, the “Sol.” value in data set [1] was greater than 53 µg/mL. The “Perm. (1 × 10^−6 cm/sec)” value in “PAMPA permeability” is <1 1 × 10^−6 cm/sec. The “Metab. Stabil. (m)” value in data set [2] is greater than 30 m.
Turning to `COc1ccc([C@H]2N=C(Nc3nc4cccc(N)c4o3)NC(C)=C2C(=O)Nc2cc(C(=O)O)ccn2)c(Cl)c1` [Compound 86, (S)-2-(2-((7-aminobenzo[d]oxazol-2-yl)amino)-4-(2-chloro-4-methoxyphenyl)-6-methyl-1,4-dihydropyrimidine-5-carboxamido)isonicotinic acid], the pIC50 at recombinant human GALK1 (setting [5]) was 5.26; on recombinant human GALK1 (setting [3]) it was 5.26; at recombinant mouse GALK1 (setting [6]), 4.46; on recombinant mouse GALK1 (setting [4]) it was 4.46. Further, the “Sol.” value in data set [1] was greater than 81 µg/mL. For the same compound, in the data set “PAMPA permeability”, the “Perm. (1 × 10^−6 cm/sec)” value is <1 1 × 10^−6 cm/sec. The “Metab. Stabil. (m)” value in data set [2] is greater than 30 m.
`COc1ccc([C@@H]2N=C(Nc3nc4cccc(N)c4o3)NC(C)=C2C(=O)Nc2cc(C(=O)O)ccn2)c(Cl)c1` [Compound 87, (R)-2-(2-((7-aminobenzo[d]oxazol-2-yl)amino)-4-(2-chloro-4-methoxyphenyl)-6-methyl-1,4-dihydropyrimidine-5-carboxamido)isonicotinic acid]: the pIC50 at recombinant human GALK1 (setting [5]) was 6.82; on recombinant human GALK1 (setting [3]), 6.82; on recombinant mouse GALK1 (setting [6]), 5.61; on recombinant mouse GALK1 (setting [4]) it was 5.61. In addition, in data set [1], the “Sol.” value was greater than 81 µg/mL. Besides, the “Perm. (1 × 10^−6 cm/sec)” value in “PAMPA permeability” is recorded as <1 1 × 10^−6 cm/sec. Further, in data set [2], the “Metab. Stabil. (m)” value is listed as greater than 30 m.
Take `CC1=C(C(=O)Nc2cc(-c3nn[nH]n3)ccn2)C(c2ccc(C)cc2Cl)N=C(Nc2nc3ccc(F)cc3o2)N1` (centres unmarked) [Compound 88, N-(4-(2H-tetrazol-5-yl)pyridin-2-yl)-4-(2-chloro-4-methylphenyl)-2-((6-fluorobenzo[d]oxazol-2-yl)amino)-6-methyl-1,4-dihydropyrimidine-5-carboxamide]: the pIC50 at recombinant human GALK1 (setting [3]) is 5.86; at recombinant mouse GALK1 (setting [4]), 5.01. The “Sol.” value in data set [1] was less than 1 µg/mL. Moreover, in “PAMPA permeability”, the “Perm. (1 × 10^−6 cm/sec)” value was <1 1 × 10^−6 cm/sec. In addition, the “Metab. Stabil. (m)” value in data set [2] is greater than 30 m.
On to `CC1=C(C(=O)Nc2cc(N(C)C)ccn2)C(c2ccc(C)cc2Cl)N=C(Nc2nc3cccc(N)c3o2)N1` (centres unmarked) [Compound 89, 2-((7-aminobenzo[d]oxazol-2-yl)amino)-4-(2-chloro-4-methylphenyl)-N-(4-(dimethylamino)pyridin-2-yl)-6-methyl-1,4-dihydropyrimidine-5-carboxamide], for which the pIC50 on recombinant human GALK1 (setting [5]) was 5.46; at recombinant human GALK1 (setting [3]), 5.48; on recombinant mouse GALK1 (setting [6]), 4.81; on recombinant mouse GALK1 (setting [4]), 4.81. Besides, the “Sol.” value in data set [1] was found to be 4.6 µg/mL. Besides, the “Perm. (1 × 10^−6 cm/sec)” value in the data set “PAMPA permeability” is reported as 179.3 1 × 10^−6 cm/sec. Also, the “Metab. Stabil. (m)” value in data set [2] is on record as 11.7017 m.
For `CC1=C(C(=O)Nc2cc(N(C)C)ccn2)C(c2ccc(C)cc2Cl)N=C(Nc2nc3ccc(F)cc3o2)N1` (centres unmarked) [Compound 90, 4-(2-chloro-4-methylphenyl)-N-(4-(dimethylamino)pyridin-2-yl)-2-((6-fluorobenzo[d]oxazol-2-yl)amino)-6-methyl-1,4-dihydropyrimidine-5-carboxamide], the pIC50 was 5.36 at recombinant human GALK1 (setting [5]), 5.36 on recombinant human GALK1 (setting [3]), 5.16 at recombinant mouse GALK1 (setting [6]) and 5.16 on recombinant mouse GALK1 (setting [4]). In addition, the “Sol.” value in data set [1] is 6.2 µg/mL. Moreover, the “Perm. (1 × 10^−6 cm/sec)” value in “PAMPA permeability” is recorded as 264.3 1 × 10^−6 cm/sec. In data set [2], the “Metab. Stabil. (m)” value was 17.58 m.
As for `CC1=C(C(=O)Nc2cc(B(O)O)ccn2)C(c2ccc(C)cc2Cl)N=C(Nc2nc3ccc(F)cc3o2)N1` (centres unmarked) [Compound 92, (2-(4-(2-chloro-4-methylphenyl)-2-((6-fluorobenzo[d]oxazol-2-yl)amino)-6-methyl-1,4-dihydropyrimidine-5-carboxamido)pyridin-4-yl)boronic acid], the pIC50 on recombinant human GALK1 (setting [5]) was 5.71; on recombinant human GALK1 (setting [3]), 5.71; at recombinant mouse GALK1 (setting [6]) it was 4.96; at recombinant mouse GALK1 (setting [4]), 4.96. Also, in data set [1], the “Sol.” value was less than 1 µg/mL. For the same compound, the “Perm. (1 × 10^−6 cm/sec)” value in “PAMPA permeability” is recorded as <3.2 1 × 10^−6 cm/sec. Further, the “Metab. Stabil. (m)” value in data set [2] amounted to 14.13 m.
In the case of `COc1ccc2nc(NC3=NC(c4ccccc4Cl)C(C(=O)Nc4nnc(-c5cccnc5)s4)=C(C)N3)oc2c1` (centres unmarked) [Compound 93, 4-(2-chlorophenyl)-2-((6-methoxybenzo[d]oxazol-2-yl)amino)-6-methyl-N-(5-(pyridin-3-yl)-1,3,4-thiadiazol-2-yl)-1,4-dihydropyrimidine-5-carboxamide], the pIC50 on recombinant human GALK1 (setting [3]) is 5.01; on recombinant mouse GALK1 (setting [4]) it was 4.66. Besides, the “Sol.” value in data set [1] is less than 1 µg/mL. Further, the “Perm. (1 × 10^−6 cm/sec)” value in “PAMPA permeability” is on record as <4.4 1 × 10^−6 cm/sec. The “Metab. Stabil. (m)” value in data set [2] is listed as greater than 30 m.
As to `CC1=C(C(=O)Nc2nnc(-c3cccnc3)s2)C(c2ccccc2Cl)N=C(Nc2nc3ccc(Cl)cc3o2)N1` (centres unmarked) [Compound 94, 2-((6-chlorobenzo[d]oxazol-2-yl)amino)-4-(2-chlorophenyl)-6-methyl-N-(5-(pyridin-3-yl)-1,3,4-thiadiazol-2-yl)-1,4-dihydropyrimidine-5-carboxamide], the pIC50 on recombinant human GALK1 (setting [3]) is 4.56. Moreover, the “mGALK (μM)” value on recombinant mouse GALK1 (setting [7]) is on record as “in- active”. Further, in data set [1], the “Sol.” value was less than 1 µg/mL. The “Perm. (1 × 10^−6 cm/sec)” value in “PAMPA permeability” is on record as <10.3 1 × 10^−6 cm/sec. Further, in data set [2], the “Metab. Stabil. (m)” value was greater than 30 m.
In the case of `COc1ccc2oc(NC3=NC(c4ccccc4Cl)C(C(=O)Nc4nnc(-c5cccnc5)s4)=C(C)N3)nc2c1` (centres unmarked) [Compound 95, 4-(2-chlorophenyl)-2-((5-methoxybenzo[d]oxazol-2-yl)amino)-6-methyl-N-(5-(pyridin-3-yl)-1,3,4-thiadiazol-2-yl)-1,4-dihydropyrimidine-5-carboxamide], the “hGALK (μM)” value on recombinant human GALK1 (recombinant human GALK1, Kinase-Glo Plus ATP depletion) is “in- active”. The “mGALK (μM)” value at recombinant mouse GALK1 (setting [7]) is recorded as “in- active”. In data set [1], the “Sol.” value is less than 1 µg/mL. In addition, the “Perm. (1 × 10^−6 cm/sec)” value in “PAMPA permeability” is recorded as <19.1 1 × 10^−6 cm/sec. The “Metab. Stabil. (m)” value in data set [2] is greater than 30 m.
In the case of `CC1=C(C(=O)Nc2nnc(-c3cccnc3)s2)C(c2ccccc2Cl)N=C(Nc2nc3cc(C)ccc3o2)N1` (centres unmarked) [Compound 96, 4-(2-chlorophenyl)-2-((5-methylbenzo[d]oxazol-2-yl)amino)-6-methyl-N-(5-(pyridin-3-yl)-1,3,4-thiadiazol-2-yl)-1,4-dihydropyrimidine-5-carboxamide], the pIC50 on recombinant human GALK1 (setting [3]) was 5.31; on recombinant mouse GALK1 (setting [4]), 4.96. The “Sol.” value in data set [1] is less than 1 µg/mL. Also, the “Perm. (1 × 10^−6 cm/sec)” value in the data set “PAMPA permeability” was <1.5 1 × 10^−6 cm/sec. Also, the “Metab. Stabil. (m)” value in data set [2] is reported as greater than 30 m.

The values above are taken from US20230158025A1 (UNIVERSITY OF UTAH RESEARCH FOUNDATION, priority 2020, published 2023).
